Measurements from publication PMC2929374 (Chemmedchem, 2009).
Like-named read-outs stand apart in the source and are kept apart here.

How the values were obtained:
[1] = target: T1, T. brucei TryR (trypanothione reductase; TyrR) (Trypanosoma brucei, UniProt P39051); test: DTNB-coupled TryR assay, absorbance, 384-well; format: biochemical
[2] = target: T1, T. brucei TryR (trypanothione reductase; TyrR); test: DTNB-coupled kinetics, global fit; format: biochemical
[3] = read-out: TryR IC50, pH 7.4, 40 mM HEPES, 1 mM EDTA, 6 μM trypanothione, 50 μM DTNB, 150 μM NADPH, room temperature

T1 sequence (P39051 whole entry): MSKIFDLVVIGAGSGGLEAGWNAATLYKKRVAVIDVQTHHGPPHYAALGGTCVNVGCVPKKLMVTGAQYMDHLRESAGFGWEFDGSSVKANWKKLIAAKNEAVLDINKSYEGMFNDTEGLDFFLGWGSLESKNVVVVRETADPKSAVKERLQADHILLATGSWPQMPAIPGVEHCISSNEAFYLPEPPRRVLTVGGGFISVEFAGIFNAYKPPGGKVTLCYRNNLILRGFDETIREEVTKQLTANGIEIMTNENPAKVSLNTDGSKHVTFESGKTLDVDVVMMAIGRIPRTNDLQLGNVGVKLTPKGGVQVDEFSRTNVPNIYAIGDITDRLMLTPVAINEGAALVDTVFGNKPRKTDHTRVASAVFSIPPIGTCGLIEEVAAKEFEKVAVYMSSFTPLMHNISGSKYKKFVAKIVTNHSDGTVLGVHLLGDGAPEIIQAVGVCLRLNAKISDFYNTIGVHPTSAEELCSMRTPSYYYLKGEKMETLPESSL

SMILES | IC50 [1] | also measured
c1ccc2sc(C3(N4CCCCC4)CCCCC3)cc2c1 [compound 1, 1-(1-(Benzo[b]thiophen-2-yl)cyclohexyl)piperidine] |  | IC50 [1, 3]: 3.3 µM
c1csc(C2(N3CCCCC3)CCCCC2)c1 [compound 3] |  | IC50 [1, 3]: > 100 µM
c1ccc(-c2ccc(C3(N4CCCCC4)CCCCC3)cc2)cc1 [compound 4] | > 100 µM | 
c1ccc2oc(C3(N4CCCCC4)CCCCC3)cc2c1 [compound 5] | 4.4 µM | Ki [2]: 1.46 µM
c1ccc2c(C3(N4CCCCC4)CCCCC3)cccc2c1 [compound 6] | > 100 µM | 
c1ccc2cc(C3(N4CCCCC4)CCCCC3)ccc2c1 [compound 7] | 28 µM | 
c1ccc2sc(C3(N4CCCCC4)CCCCC3)nc2c1 [compound 9] | > 100 µM | 
Brc1ccc2sc(C3(N4CCCCC4)CCCCC3)cc2c1 [compound 12, 1-(1-(5-Bromo-benzo[b]thiophen-2-yl)cyclohexyl)piperidine] | > 100 µM | 
c1ccc2sc(C3(N4CCCC4)CCCCC3)cc2c1 [compound 13] |  | IC50 [1, 3]: 0.91 µM
CCN(CC)C1(c2cc3ccccc3s2)CCCCC1 [compound 14] |  | IC50 [1, 3]: 5 µM
c1ccc2sc(C3(N4CCOCC4)CCCCC3)cc2c1 [compound 15] | 11 µM | 
CN1CCN(C2(c3cc4ccccc4s3)CCCCC2)CC1 [compound 16] | 10 µM | 
c1ccc2sc(C3(N4CCCCC4)CCCC3)cc2c1 [compound 17] | 11 µM | 
CN1CCC(c2cc3ccccc3s2)(N2CCCCC2)CC1 [compound 18] | 0.93 µM | 
CC(C)(c1cc2ccccc2s1)N1CCCCC1 [compound 19] | 15 µM | 
O=C(c1cc2ccccc2s1)C1(N2CCCCC2)CCCCC1 [compound 24, Benzo[b]thiophen-2-yl(1-(piperidin-1-yl)cyclohexyl)methanone] | > 100 µM | 
OC(c1ccccc1)(c1ccccc1)C1(N2CCCCC2)CCCCC1 [compound 25, Diphenyl(1-(piperidin-1-yl)cyclohexyl)methanol] | > 100 µM | 
CC(C)(C)OC(=O)N1CCC(c2cc3ccccc3s2)(N2CCCCC2)CC1 [compound 27, tert-Butyl 4′-(benzo[b]thiophen-2-yl)-1,4′-bipiperidine-1′-carboxylate] | > 100 µM | 
c1ccc2sc(C3(N4CCCCC4)CCNCC3)cc2c1 [compound 28, 4′-(Benzo[b]thiophen-2-yl)-[1,4′]bipiperidine] | 5.1 µM | 
CC(=O)N1CCC(c2cc3ccccc3s2)(N2CCCCC2)CC1 [compound 29] | 6.6 µM | 
O=C(c1ccccc1)N1CCC(c2cc3ccccc3s2)(N2CCCCC2)CC1 [compound 30, (4′-(Benzo[b]thiophen-2-yl)-1,4′-bipiperidinyl-1′-yl)(phenyl)methanone] | 13 µM | 
O=C(Cc1ccccc1)N1CCC(c2cc3ccccc3s2)(N2CCCCC2)CC1 [compound 31, 1-(4′-(Benzo[b]thiophen-2-yl)-1,4′-bipiperidinyl-1′-yl)-2-phenylethanone] | 12 µM | 
CN(C)CC(=O)N1CCC(c2cc3ccccc3s2)(N2CCCCC2)CC1 [compound 32, 1-(4′-(Benzo[b]thiophen-2-yl)-1,4′-bipiperidinyl-1′-yl)-2-(dimethylamino)ethanone] | 2.6 µM | 
c1ccc2sc(C3(N4CCCCC4)CCN(CCN4CCOCC4)CC3)cc2c1 [compound 33, 4-(2-(4′-(Benzo[b]thiophen-2-yl)-1,4′-bipiperidin-1′-yl)ethyl)morpholine] | 4.4 µM | 
c1ccc(CN2CCC(c3cc4ccccc4s3)(N3CCCCC3)CC2)cc1 [compound 34, 4′-(Benzo[b]thiophen-2-yl)-1′-benzyl-1,4′-bipiperidine] | 19 µM | 
CN(C)CCN1CCC(c2cc3ccccc3s2)(N2CCCCC2)CC1 [compound 35, 2-(4′-(Benzo[b]thiophen-2-yl)-1,4′-bipiperidinyl-1′-yl)-N,N-dimethylethanamine] | > 100 µM | 
